Source: paper PMC5333804, “Comparison of pancreatic lipase inhibitory isoflavonoids from unripe and ripe fruits of Cudrania tricuspidata” (PLoS ONE, 2017)

target: T1, porcine pancreatic lipase (Sus scrofa, UniProt P00591); test: p-nitrophenyl butyrate hydrolysis assay; Lineweaver-Burk analysis; assay type: biochemical
T1 construct: gene PNLIP
T1 sequence (P00591 1-450): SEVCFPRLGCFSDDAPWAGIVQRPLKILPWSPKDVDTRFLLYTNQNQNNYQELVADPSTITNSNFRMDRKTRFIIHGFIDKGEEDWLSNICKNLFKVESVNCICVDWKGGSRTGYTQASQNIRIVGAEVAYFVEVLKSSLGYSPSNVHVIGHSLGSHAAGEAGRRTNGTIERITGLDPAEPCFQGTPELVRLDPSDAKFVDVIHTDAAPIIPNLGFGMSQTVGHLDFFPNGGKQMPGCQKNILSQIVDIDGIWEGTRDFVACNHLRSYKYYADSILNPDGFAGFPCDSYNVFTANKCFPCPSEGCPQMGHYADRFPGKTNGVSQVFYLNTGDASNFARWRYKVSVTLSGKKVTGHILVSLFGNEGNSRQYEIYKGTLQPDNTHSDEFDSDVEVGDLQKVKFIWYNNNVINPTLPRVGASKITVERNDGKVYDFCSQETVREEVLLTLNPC

Row | IC50 | SMILES
1 | 16.8 µM | CC1(C)C=Cc2c(cc(O)c3c(=O)c(-c4ccc(O)c(O)c4)coc23)O1 [compound 19, 5,3',4'-trihydroxy-2", 2"-dimethylpyrano (5",6":7,8) isoflavone]

target: T1, porcine pancreatic lipase; test: p-nitrophenyl butyrate hydrolysis assay, % inhibition at […]; assay type: biochemical

Row | inhibition at 100 µM | SMILES
2 | 60.7% | O=c1c(-c2ccc(O)cc2)coc2cc(O)cc(O)c12 [compound 1, genistein]
3 | 65.7% | CC(C)=CCc1c(O)cc2occ(-c3ccc(O)cc3)c(=O)c2c1O [compound 9, wighteone]
4 | 92.8% | CC(C)=CCc1c(O)c(CC=C(C)C)c2occ(-c3ccc(O)c(O)c3)c(=O)c2c1O [compound 12, 5,7,3',4'-tetrahydroxy-6-8-diprenylisoflavone]
5 | > 50% | CC1(C)C=Cc2c(cc3occ(-c4ccc(O)c(O)c4)c(=O)c3c2O)O1 [compound 15, 5,3',4'-trihydroxy-6'',6''-dimethylpyrano-[2'',3'';7,6]isoflavone]
6 | > 50% | CC(C)=CCc1c2c(c(O)c3c(=O)c(-c4ccc(O)cc4)coc13)C=CC(C)(C)O2 [compound 16, scandenone]
7 | 68.2% | CC1(C)C=Cc2c(cc(O)c3c(=O)c(-c4ccc(O)cc4)coc23)O1 [compound 17, derrone]
